Measured values from PMC6136390, “Coptisine-induced inhibition of Helicobacter pylori: elucidation of specific mechanisms by probing urease active site and its maturation process” (Journal of Enzyme Inhibition and Medicinal Chemistry, 2018).
Read-outs that look alike come from different tables or passages of the source.

Columns and labels:
H. pylori cells (SS1) = test: pH shock experiment in vivo (urea-dependent survival of H. pylori); assay type: cell-based, Helicobacter pylori; details: for surviving bacteria, pH =1: 100 mM HCl pH 1, 5 mM urea; for surviving bacteria, pH =1 / surviving bacteria, pH =7.2: 30 min; for surviving bacteria, pH =7.2: PBS pH 7.2, 5 mM urea; for inhibition at 50 µM / inhibition at 100 µM / inhibition at 200 µM: Helicobacter pylori, 0.5 h
Protocol: H. pylori cells (SS1) were harvested, and the concentration was adjusted to Mc = 4 with saline. Then, bacterial samples were mixed with AHA (positive control, 5 mM) or one of the five alkaloids from Rhizoma Coptidis (coptisine, berberine, jatrorrhizine, epiberberine, and palmatine) in 100 mM HCl (pH = 1) or PBS (pH = 7.2) at 37 °C with or without 5 mM urea. After 30 min of incubation, bacteria were collected by centrifugation at 2000g for 10 min and resuspended in the same volume of PBS. A dilution series (1:1–1:10000) was made from the samples, and the dilutions were plated on solid agar for 5 days to form single colony. Samples from urea-free wells were used as controls. Results are expressed as CFU/mL; the experiment was repeated in triplicate. Inhibition rate was calculated using the following equation: Inhibition rate = (Urea group bacterial mean − X group bacterial mean)/Urea group bacterial mean ×100%, where X represents each experimental group.

H. pylori urease (HPU) [1] = biological target: T1, H. pylori urease (HPU) (Helicobacter pylori, UniProt P69996); test: Urease inhibition assay in vitro (modified Berthelot method); assay type: biochemical
T1 construct: Crude HPU was obtained according to the method described by Matsubara et al; endogenous in cells; host or cells: cultured Helicobacter pylori (strain not specified)
T1 sequence (P69996 whole entry): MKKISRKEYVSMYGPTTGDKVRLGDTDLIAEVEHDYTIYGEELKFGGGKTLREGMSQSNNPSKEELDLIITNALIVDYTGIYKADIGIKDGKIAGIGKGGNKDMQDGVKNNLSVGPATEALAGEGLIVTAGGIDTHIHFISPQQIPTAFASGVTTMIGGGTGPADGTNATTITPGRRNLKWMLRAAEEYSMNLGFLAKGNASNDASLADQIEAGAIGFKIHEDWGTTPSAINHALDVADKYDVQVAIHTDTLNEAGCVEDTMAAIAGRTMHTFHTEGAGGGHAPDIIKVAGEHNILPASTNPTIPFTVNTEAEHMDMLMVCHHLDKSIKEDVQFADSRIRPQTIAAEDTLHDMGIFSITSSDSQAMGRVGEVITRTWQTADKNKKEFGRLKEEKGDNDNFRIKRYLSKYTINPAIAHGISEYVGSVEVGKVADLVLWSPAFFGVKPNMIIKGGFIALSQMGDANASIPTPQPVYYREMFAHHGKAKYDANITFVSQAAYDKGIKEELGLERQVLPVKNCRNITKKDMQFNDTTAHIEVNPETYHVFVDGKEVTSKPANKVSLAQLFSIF
T1 sequence (P14916 whole entry, further chain): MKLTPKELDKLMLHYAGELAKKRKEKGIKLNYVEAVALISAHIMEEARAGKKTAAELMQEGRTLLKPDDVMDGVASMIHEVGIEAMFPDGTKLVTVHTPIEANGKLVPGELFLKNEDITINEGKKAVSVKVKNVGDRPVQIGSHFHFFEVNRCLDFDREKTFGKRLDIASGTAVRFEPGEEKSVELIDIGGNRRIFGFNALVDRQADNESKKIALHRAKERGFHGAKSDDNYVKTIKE
Protocol: All strains were cultured in Columbia agar base containing 7% sheep blood at 37 °C in a micro-aerophilic environment (5% O2, 10% CO2, and 85% N2). After 3 days, H. pylori was scraped and suspended in phosphate buffered saline (PBS). Turbidimetry was employed to adjust the concentrations of different H. pylori strains (turbidity equivalent to 1.0 McFarland standard). Crude HPU was obtained according to the method described by Matsubara et al.[42]
This assay was performed using the modified Berthelot method (phenol-hypochlorite) in 96 well plates. At the beginning of each reaction, different concentrations of urease solution and 150 mM urea as a substrate were mixed in 20 mM HEPES buffer (pH 7.5) at 37 °C. After a 20-min reaction, urease activity was tested by measuring the concentration of ammonia produced by the reaction at 595 nm using the microplate reader (Thermo Fisher Multiskan FC, Instruments, Inc., USA) at ambient temperature. […] One unit (U) of urease activity was defined as the amount of urease required to catalyse 1 μmol urea per min. […]
Coptisine’s ability to inhibit urease activity was determined by measuring amounts of ammonia produced using the modified Berthelot method described above. […] Residual activity (RA %) for each assay was calculated using the following equation: RA % = (activity with inhibitors/activity without inhibitors) × 100%. […]

H. pylori urease (HPU) [2] = biological target: T1, H. pylori urease (HPU); test: Progress curve analysis; assay type: biochemical; details: 0.63, 1.25 and 2.50 mM Cop, non-pre-incubated and pre-incubated systems
Protocol: (§1) Reaction progress curves for urea hydrolysis in the non-pre-incubated and pre-incubated systems were generated by plotting the concentration of ammonia generated as a function of the incubation time P(t) in the absence or presence of coptisine. Coptisine and urease were mixed immediately before the reaction in the non-pre-incubated system and were mixed and incubated for 20 min before urea was added to initiate the reaction in the pre-incubated system. Urease activity relative to the standard assay was determined at different time intervals.

jack bean urease (JBU) = biological target: T2, jack bean urease (JBU) (Canavalia ensiformis, UniProt P07374); test: Progress curve analysis; assay type: biochemical; details: 0.63, 1.25 and 2.50 mM Cop, non-pre-incubated and pre-incubated systems
T2 construct: purchased Sigma Aldrich (Steineheim, Germany) type III (catalogue number not given)
T2 sequence (P07374 whole entry, looked up): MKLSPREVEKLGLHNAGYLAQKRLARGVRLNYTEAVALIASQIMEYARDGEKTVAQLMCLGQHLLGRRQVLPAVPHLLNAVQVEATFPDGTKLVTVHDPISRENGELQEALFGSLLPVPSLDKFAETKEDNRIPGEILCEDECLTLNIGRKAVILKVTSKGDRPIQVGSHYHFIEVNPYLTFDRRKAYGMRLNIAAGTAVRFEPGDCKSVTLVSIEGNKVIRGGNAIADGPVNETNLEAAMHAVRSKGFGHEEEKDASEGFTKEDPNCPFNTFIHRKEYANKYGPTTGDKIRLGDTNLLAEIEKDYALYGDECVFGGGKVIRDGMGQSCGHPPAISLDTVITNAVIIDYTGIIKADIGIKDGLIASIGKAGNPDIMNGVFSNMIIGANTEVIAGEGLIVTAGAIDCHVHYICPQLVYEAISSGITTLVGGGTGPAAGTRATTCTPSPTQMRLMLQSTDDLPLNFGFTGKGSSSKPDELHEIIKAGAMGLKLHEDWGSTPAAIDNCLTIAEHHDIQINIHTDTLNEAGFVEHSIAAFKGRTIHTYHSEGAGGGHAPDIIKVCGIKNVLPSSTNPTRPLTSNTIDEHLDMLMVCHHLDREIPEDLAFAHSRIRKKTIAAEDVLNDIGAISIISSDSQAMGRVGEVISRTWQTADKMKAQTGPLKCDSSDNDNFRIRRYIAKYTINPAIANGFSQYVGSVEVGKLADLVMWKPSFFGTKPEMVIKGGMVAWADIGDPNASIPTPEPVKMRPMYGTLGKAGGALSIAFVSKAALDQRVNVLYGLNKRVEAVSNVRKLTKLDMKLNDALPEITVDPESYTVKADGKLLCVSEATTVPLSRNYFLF
Protocol: as §1

UreG dimer = biological target: T3, UreG dimer (Helicobacter pylori, UniProt Q09066); test: UreG dimer formation inhibition assay (size exclusion chromatography); assay type: biochemical; details: 500 μM coptisine, 300 μM GTP, 5 μM UreG monomer, 2.5 μM NiSO4, 60 min
T3 construct: HisSUMO (N, cleaved yes); made in house; host or cells: Escherichia coli
T3 sequence (Q09066 whole entry): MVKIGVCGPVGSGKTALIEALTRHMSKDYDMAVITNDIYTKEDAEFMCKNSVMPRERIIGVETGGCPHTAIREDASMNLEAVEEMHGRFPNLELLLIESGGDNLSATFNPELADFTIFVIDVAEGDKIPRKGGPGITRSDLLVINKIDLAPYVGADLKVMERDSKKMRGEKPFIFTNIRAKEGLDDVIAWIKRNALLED
Protocol: Size exclusion chromatography technology was used to analyse the effects of coptisine on UreG dimer formation. Experiment was carried out in the buffer containing 5 μM UreG monomer and 2.5 μM NiSO4, and divided into the following three groups: 300 μM GTP (positive control), buffer A (negative control), and 300 μM GTP +500 μM coptisine. After reaction for 60 min, samples were then injected into a Superdex 75 analytical gel filtration column pre-equilibrated with buffer A.

[3] = pH 1, read-out: Inhibition rate, pH =1
[4] = pH 7.2, read-out: Inhibition rate, pH =7.2

With `c1c2c(cc3c1OCO3)-c1cc3ccc4c(c3c[n+]1CC2)OCO4` [Coptisine] the “surviving bacteria, pH =1” value (H. pylori cells (SS1); 50 μM compound) was 129 ± 31 CFU/mL, the “surviving bacteria, pH =7.2” value (H. pylori cells (SS1); 50 μM compound) was 1.0 ± 0.2 ×10^4 CFU/mL and the “surviving bacteria, pH =1” value (H. pylori cells (SS1); 100 μM compound) was 25 ± 6 CFU/mL. The “surviving bacteria, pH =7.2” value (H. pylori cells (SS1); 100 μM compound) was 1.3 ± 0.3 ×10^4 CFU/mL, the “surviving bacteria, pH =1” value (H. pylori cells (SS1); 200 μM compound) was 7 ± 3 CFU/mL and the “surviving bacteria, pH =7.2” value (H. pylori cells (SS1); 200 μM compound) was 1.2 ± 0.3 ×10^4 CFU/mL. The inhibition at 50 µM (H. pylori cells (SS1); [3]) was 72.7%, the inhibition at 100 µM (H. pylori cells (SS1); [3]) was 94.7% and the inhibition at 200 µM (H. pylori cells (SS1); [3]) was 98.5%. For the same molecule, the inhibition at 50 µM (H. pylori cells (SS1); [4]) was 0%, the inhibition at 100 µM (H. pylori cells (SS1); [4]) was 0% and the inhibition at 200 µM (H. pylori cells (SS1); [4]) was 0%. The IC50 (H. pylori urease (HPU) [1]) was 1.78 ± 0.06 mM, the “binding behaviour from reaction progress curves, HPU” value (H. pylori urease (HPU) [2]) was “slow-binding inhibition” and the “binding behaviour from reaction progress curves, JBU” value (jack bean urease (JBU)) was “slow-binding inhibition”. For the same molecule, the UreG dimerisation (UreG dimer) was “obviously inhibited”.
